# According to BindingDB's records for doi:10.1021/jm991074s (University of Catania, 2000):
# pKi: −log10 of the molar value.
# Molecular target: Cannabinoid receptor 2 (Homo sapiens, UniProt P34972)
# Experiment: Binding affinity towards cloned human cannabinoid receptor 2
# Sequence of Cannabinoid receptor 2 (P34972 whole entry): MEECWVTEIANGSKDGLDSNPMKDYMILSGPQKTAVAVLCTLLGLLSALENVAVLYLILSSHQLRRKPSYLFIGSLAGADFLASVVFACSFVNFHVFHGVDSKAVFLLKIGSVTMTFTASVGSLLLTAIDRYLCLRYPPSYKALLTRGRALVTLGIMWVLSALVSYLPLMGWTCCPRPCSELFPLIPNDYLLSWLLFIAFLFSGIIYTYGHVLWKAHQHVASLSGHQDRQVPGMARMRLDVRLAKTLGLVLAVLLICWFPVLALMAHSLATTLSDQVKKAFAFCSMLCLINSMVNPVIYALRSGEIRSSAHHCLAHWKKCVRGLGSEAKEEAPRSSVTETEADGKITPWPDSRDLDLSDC
row,Structure (SMILES),pKi
1,CCCCCn1ccc(C(=O)c2cccc3ccccc23)c1,6.49
2,CC1=CCC2C(C1)c1c(O)cc(CCCCC(F)(F)F)cc1OC2(C)C (stereo not given),7.52
3,CCCCC/C=C\C/C=C\C/C=C\C/C=C\CCCC(=O)N1CCOCC1,6.27
4,CCCCC/C=C\C/C=C\C/C=C\C/C=C\CCC(C(=O)NCCO)C(C)C (stereo not given),5.29
5,CC1=CCC2C(C1)c1c(O)cc(CCCCCF)cc1OC2(C)C (stereo not given),8.06
6,"CCCCC/C=C\C/C=C\C/C=C\C/C=C\CCC(C)C(=O)NCCF (stereo not given) [2-Methyl-icosa-5,8,11,14-tetraenoic acid (2-fluoro-ethyl)-amide (0689)]",6.89
7,"CCCCCc1cc(O)c2c(c1)OC(C)(C)c1ccc(C)cc1-2 [6,6,9-Trimethyl-3-pentyl-6H-benzo[c]chromen-1-ol(Cannabinol)]",7.02
8,"CCCCC/C=C\C/C=C\C/C=C\C/C=C\CCCC(=O)NCCF [(5Z,8Z,11Z,14Z)-Icosa-5,8,11,14-tetraenoic acid (2-fluoro-ethyl)-amide]",6.49
9,"CCCCC/C=C\C/C=C\C/C=C\C/C=C\CCCC(=O)NCCOC [(5Z,8Z,11Z,14Z)-Icosa-5,8,11,14-tetraenoic acid (2-methoxy-ethyl)-amide]",6.35
10,CCCCCn1c(C)c(C(=O)c2cccc3ccccc23)c2ccccc21 [JWH-007],8.52
